{"source": "patent US20170198363A1", "about": "“COMPOSITIONS AND METHODS FOR DETECTION OF SMALL MOLECULES” (COLORADO STATE UNIVERSITY RESEARCH FOUNDATION, priority 2015, published 2017)", "molecules": {"B1": {"name": "PRO2: progesterone binding sensor protein, SEQ ID NO:17, tested as TF-biosensor in plant protoplasts (protein)", "chain": "MNAKEIVVHSLRLLENGDARGWSDLFHPEGVLEFPYAPPGHKTRFEGRETIWAHMRLFPEYVTVRFTDVQFYETADPDLAIGEFHGDGVLTASGGMLAFDFIAVWRTRDGQILQYRVFYNPLRELEALGGVEAAAKIVQGAGSLE"}, "B2": {"name": "PRO0: progesterone binder from three rationally designed binding site mutations in DIG0; SEQ ID NO:13 (protein)", "chain": "B1 chain with M96K, Q114L, Y119F, E124V"}, "B3": {"name": "DIG10.3 (protein)", "chain": "B1 chain with F34Y, M96K, F99Y, F101Y, Q114L, Y119F, E124V"}}, "key": {"yeast": {"system": "yeast", "assay": "Progesterone toxicity to yeast cells"}, "degron-G-PRO1-V": {"target": "T1, degron-G-PRO1-V (Saccharomyces cerevisiae, UniProt P0CY08)", "T1 construct": "expressed in transfected cells; host or cells: S. cerevisiae strain PJ69-4a transformed with a p16C (p416CYC) plasmid", "assay": "HIS3 reporter growth assay, strain PJ69-4a", "type": "cell-based, yeast", "conditions": "HIS3 reporter strain PJ69-4a"}, "plant cells": {"system": "plant cells", "assay": "Progesterone toxicity to plant cells (protoplasts)"}, "[1]": {"system": "plant biosensor (G-DIG1-V-Matα2)", "assay": "Induction of the plant biosensor by steroids", "type": "in vivo, Arabidopsis thaliana", "conditions": "transgenic Arabidopsis"}, "[2]": {"assay": "Progesterone biosensor luciferase assay in plant protoplasts", "type": "cell-based", "conditions": "25 μM progesterone, L77F mutation in the Gal4 DBD"}, "[3]": {"assay": "PRO0 binding of progesterone"}, "[4]": {"conditions": "cited from earlier work"}, "[5]": {"conditions": "cited from earlier work", "remark": "listed apart in the source"}}, "note": "Numbering of substitutions follows the chain as printed.", "data": [{"molecule": "CC(=O)[C@H]1CC[C@H]2[C@@H]3CCC4=CC(=O)CC[C@]4(C)[C@H]3CC[C@]12C", "note": "[Progesterone, progesterone]", "values": [{"measurement": "level at which toxic, leading to substantial cell death", "setting": "yeast", "value": "≥ 100", "unit": "µM"}, {"measurement": "stimulation of growth of degron-G-PRO1-V", "setting": "degron-G-PRO1-V", "value": "stimulated"}, {"measurement": "concentration that seems to be toxic to the plant cells", "setting": "plant cells", "value": 250, "unit": "µM"}]}, {"molecule": "C[C@H]1O[C@@H](O[C@H]2[C@@H](O)C[C@H](O[C@H]3[C@@H](O)C[C@H](O[C@H]4CC[C@@]5(C)[C@H](CC[C@@H]6[C@@H]5C[C@@H](O)[C@]5(C)[C@@H](C7=CC(=O)OC7)CC[C@]65O)C4)O[C@@H]3C)O[C@@H]2C)C[C@H](O)[C@@H]1O", "note": "[digoxin]", "values": [{"measurement": "induction of the plant biosensor", "setting": "[1]", "value": "capable of inducing"}]}, {"molecule": "B1", "values": [{"measurement": "increase in luciferase expression over background levels", "setting": "[2]", "value": "~3", "unit": "fold"}]}, {"molecule": "B2", "values": [{"measurement": "affinity for progesterone", "setting": "[3]", "value": "nanomolar"}]}, {"molecule": "B3", "values": [{"measurement": "affinity for digoxin", "setting": "[4]", "value": "picomolar"}, {"measurement": "affinity for digoxigenin", "setting": "[5]", "value": "picomolar"}]}]}
